Structures are written as SMILES. Read-outs that look alike come from different tables or passages of the source. Bounds are passed on as bounds.

This passage reports IC50 results from patent US11759455B2, “Substituted 1H-imidazo[4,5-b]pyridin-2(3H)-ones and their use as GLUN2B receptor modulators” (JANSSEN PHARMACEUTICA NV, priority 2016, dated 2023).

The target of this assay is T1, human GluN1/GluN2B NMDA receptors (Homo sapiens, UniProt Q13224).
T1 construct: expressed in transfected cells
The assay is described as follows: Cell-based calcium flux (FLIPR) assay on cloned human NR1/NR2B ion channels expressed in mammalian cells (standard and HTS buffer variants).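 Note: stable Tet-On inducible cell line, Ca2+ influx triggered by glutamate at about EC40 plus 10 µM glycine, fluorescent dye read-out over 5 min, normalized to control wells.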 In general terms: Calcium assays in cells follow changes in intracellular calcium, usually with a dye or a luminescent sensor.

Where [1] appears, read: standard assay buffer (0.5 mM MgCl2 in dye loading buffer; 137 mM NaCl, 4 mM KCl in assay buffer), human GluN1/GluN2B, read-out: NR2B IC50 (μM) standard assay.
The mark [2] stands for this setting: standard assay buffer (0.5 mM MgCl2 dye loading; 137 mM NaCl, 4 mM KCl assay buffer), human GluN1/GluN2B cells, read-out: NR2B IC50 (μM) standard assay.
The mark [3] stands for this setting: HTS assay buffer (1.5 mM MgCl2 in dye loading buffer; 150 mM NaCl, 3 mM KCl in assay buffer), human GluN1/GluN2B, read-out: NR2B IC50 (μM) HTS assay.

T1 sequence (Q13224 27-1484, other chains not shown): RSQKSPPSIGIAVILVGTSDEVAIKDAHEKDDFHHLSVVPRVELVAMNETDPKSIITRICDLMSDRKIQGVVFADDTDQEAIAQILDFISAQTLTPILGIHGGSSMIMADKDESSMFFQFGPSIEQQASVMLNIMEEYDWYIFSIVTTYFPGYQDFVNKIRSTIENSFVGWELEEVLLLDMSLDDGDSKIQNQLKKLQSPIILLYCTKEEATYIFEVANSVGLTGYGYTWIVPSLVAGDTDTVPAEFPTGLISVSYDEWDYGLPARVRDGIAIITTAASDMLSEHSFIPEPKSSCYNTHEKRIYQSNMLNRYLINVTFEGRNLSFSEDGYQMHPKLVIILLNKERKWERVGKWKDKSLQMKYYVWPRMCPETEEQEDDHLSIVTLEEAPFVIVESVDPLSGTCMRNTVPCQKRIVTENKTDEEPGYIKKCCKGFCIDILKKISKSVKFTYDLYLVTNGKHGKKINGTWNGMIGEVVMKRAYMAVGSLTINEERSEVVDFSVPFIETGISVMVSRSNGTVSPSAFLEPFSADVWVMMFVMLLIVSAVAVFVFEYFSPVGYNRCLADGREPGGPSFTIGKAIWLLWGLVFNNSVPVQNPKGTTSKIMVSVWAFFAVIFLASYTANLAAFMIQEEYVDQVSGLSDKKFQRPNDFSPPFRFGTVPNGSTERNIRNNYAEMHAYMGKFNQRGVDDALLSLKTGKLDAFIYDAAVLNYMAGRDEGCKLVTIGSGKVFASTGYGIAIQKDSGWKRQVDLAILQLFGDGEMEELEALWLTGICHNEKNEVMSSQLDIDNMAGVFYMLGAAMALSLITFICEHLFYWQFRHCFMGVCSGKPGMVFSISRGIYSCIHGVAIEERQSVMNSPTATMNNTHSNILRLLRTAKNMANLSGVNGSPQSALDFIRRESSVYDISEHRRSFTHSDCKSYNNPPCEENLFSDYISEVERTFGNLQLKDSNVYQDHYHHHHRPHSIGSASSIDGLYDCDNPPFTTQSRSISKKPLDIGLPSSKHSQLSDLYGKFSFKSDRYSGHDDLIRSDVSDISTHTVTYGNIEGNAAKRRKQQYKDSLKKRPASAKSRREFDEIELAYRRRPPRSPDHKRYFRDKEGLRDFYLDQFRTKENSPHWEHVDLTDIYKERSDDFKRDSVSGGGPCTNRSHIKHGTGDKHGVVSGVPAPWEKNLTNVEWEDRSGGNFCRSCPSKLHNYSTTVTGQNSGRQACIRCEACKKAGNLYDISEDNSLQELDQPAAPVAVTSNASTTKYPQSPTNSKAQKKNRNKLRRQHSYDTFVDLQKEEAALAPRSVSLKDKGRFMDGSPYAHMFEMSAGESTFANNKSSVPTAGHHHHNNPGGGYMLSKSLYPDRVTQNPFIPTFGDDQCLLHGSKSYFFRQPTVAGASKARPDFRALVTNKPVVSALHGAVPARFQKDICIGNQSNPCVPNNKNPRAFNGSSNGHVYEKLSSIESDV

As for `Cn1c(=O)n(CC(=O)N2CC(F)(F)C2)c2cc(-c3cccc(C(F)(F)F)c3F)cnc21` [Example 415, 1-[2-(3,3-Difluoroazetidin-1-yl)-2-oxo-ethyl]-6-[2-fluoro-3-(trifluoromethyl)phenyl]-3-methyl-imidazo[4,5-b]pyridin-2-one], the IC50 – broadly, the midpoint of a concentration-inhibition curve – under setting [1] was 0.015 µM.

For the molecule `Cn1cc(Cn2c(=O)n(C)c3ncc(-c4ccc(C(F)F)s4)cc32)nn1` [Example 559, 6-[5-(Difluoromethyl)-2-thienyl]-3-methyl-1-[(1-methyltriazol-4-yl)methyl]imidazo[4,5-b]pyridin-2-one], under setting [1], the IC50 was determined as 0.28 µM.

As to `CCC(=O)Cn1c(=O)n(C)c2ncc(-c3ccc(F)c(C)c3)cc21` [Example 389, 6-(4-Fluoro-3-methyl-phenyl)-3-methyl-1-(2-oxobutyl)imidazo[4,5-b]pyridin-2-one], the IC50 under setting [1] was determined as 0.017 µM.

Consider `Cc1cc(F)ccc1-c1cnc2[nH]c(=O)n(Cc3cccc(C#N)c3)c2c1` [Example 479, 3-[[6-(4-Fluoro-2-methyl-phenyl)-2-oxo-3H-imidazo[4,5-b]pyridin-1-yl]methyl]benzonitrile], for which, under setting [1], the IC50 came out at 0.778 µM.

In the case of `Cc1ncc(-c2cnc3c(c2)n(CC(=O)N(C)C)c(=O)n3C)s1` [Example 114, N,N-Dimethyl-2-[3-methyl-6-(2-methylthiazol-5-yl)-2-oxo-imidazo[4,5-b]pyridin-1-yl]acetamide], the IC50 under setting [2] came out at 11.7 µM.

Consider `O=c1[nH]c2ncc(-c3ccccc3)cc2n1CCN1CCCC1` [Example 180, 6-Phenyl-1-(2-pyrrolidin-1-ylethyl)-3H-imidazo[4,5-b]pyridin-2-one], for which the IC50 under setting [2] is 0.539 µM.

For the molecule `O=c1[nH]c2ncc(-c3cccc(C(F)(F)F)c3)cc2n1CCN1CC(O)C1` [Example 147, 1-[2-(3-Hydroxyazetidin-1-yl)ethyl]-6-[3-(trifluoromethyl)phenyl]-3H-imidazo[4,5-b]pyridin-2-one], under setting [2], the IC50 was found to be 0.365 µM.

In the case of `Cn1cc(Cn2c(=O)n(C)c3ncc(-c4ccc(F)c(F)c4)cc32)nn1` [Example 549, 6-(3,4-Difluorophenyl)-3-methyl-1-[(1-methyltriazol-4-yl)methyl]imidazo[4,5-b]pyridin-2-one], the IC50 under setting [1] was 0.467 µM.

As for `COc1cccc(-c2cnc3[nH]c(=O)n(Cc4ccc(F)cc4)c3c2)c1OC` [Example 493, 6-(2,3-Dimethoxyphenyl)-1-[(4-fluorophenyl)methyl]-3H-imidazo[4,5-b]pyridin-2-one], the half-inhibitory concentration (IC50) under setting [3] is 1.01 µM.

Consider `Cn1c(=O)n(CC(=O)N2CC(F)C2)c2cc(-c3cc(F)c(F)c(F)c3)cnc21` [Example 402, 1-[2-(3-Fluoroazetidin-1-yl)-2-oxo-ethyl]-3-methyl-6-(3,4,5-trifluorophenyl)imidazo[4,5-b]pyridin-2-one], for which, under setting [1], the IC50 was 0.016 µM.

Turning to `COc1ccc(-c2cnc3[nH]c(=O)n(Cc4cccc(C#N)c4)c3c2)cc1` [Example 477, 3-[[6-(4-Methoxyphenyl)-2-oxo-3H-imidazo[4,5-b]pyridin-1-yl]methyl]benzonitrile], the IC50 under setting [3] was determined as 3.16 µM.

Consider `COCCNC(=O)Cn1c(=O)[nH]c2ncc(-c3cc(F)cc(F)c3)cc21` [Example 610, 2-[6-(3,5-Difluorophenyl)-2-oxo-3H-imidazo[4,5-b]pyridin-1-yl]-N-(2-methoxyethyl)acetamide], for which the IC50 under setting [1] was 1.79 µM.

Turning to `Cn1c(=O)n(Cc2ccncc2)c2cc(-c3cccc(F)c3)cnc21` [Example 52, 6-(3-Fluorophenyl)-3-methyl-1-(4-pyridylmethyl)imidazo[4,5-1D]pyridin-2-one], the concentration for half-maximal inhibition (IC50) under setting [2] turned out to be 3.33 µM.

`O=c1[nH]c2ncc(-c3cccc(C(F)(F)F)c3)cc2n1CC1(F)COC1` [Example 226, 1-[(3-Fluorooxetan-3-yl)methyl]-6-[3-(trifluoromethyl)phenyl]-3H-imidazo[4,5-b]pyridin-2-one]: the IC50 under setting [2] stood at 0.8 µM.

`Cn1c(=O)n(Cc2cncc(F)c2)c2cc(-c3ccc(Cl)c(OC(F)F)c3)cnc21` [Example 544, 6-[4-Chloro-3-(difluoromethoxy)phenyl]-1-[(5-fluoro-3-pyridyl)methyl]-3-methyl-imidazo[4,5-b]pyridin-2-one]: the IC50 under setting [1] came to 0.09 µM.

Regarding `Cn1c(=O)n(CC(=O)N2CCC2)c2cc(-c3ccc(F)s3)cnc21` [Example 81, 1-[2-(Azetidin-1-yl)-2-oxo-ethyl]-6-(5-fluoro-2-thienyl)-3-methyl-imidazo[4,5-b]pyridin-2-one], under setting [2], the IC50 came to 0.031 µM.

Regarding `O=c1[nH]c2ncc(-c3cccc(C(F)(F)F)c3)cc2n1Cc1cccnn1` [Example 232, 1-(Pyridazin-3-ylmethyl)-6-[3-(trifluoromethyl)phenyl]-3H-imidazo[4,5-b]pyridin-2-one], the 50% inhibitory concentration (IC50) under setting [2] is 0.017 µM.

On to `COc1cccc(Cn2c(=O)[nH]c3ncc(-c4ccc(F)cc4OC)cc32)c1` [Example 505, 6-(4-Fluoro-2-methoxy-phenyl)-1-[(3-methoxyphenyl)methyl]-3H-imidazo[4,5-b]pyridin-2-one], for which the IC50 under setting [1] worked out at 1.64 µM.

Take `O=c1[nH]c2ncc(-c3cccc(C(F)(F)F)c3)cc2n1Cc1cnccn1` [Example 253, 1-(Pyrazin-2-ylmethyl)-6-[3-(trifluoromethyl)phenyl]-3H-imidazo[4,5-b]pyridin-2-one]: the IC50 under setting [2] stood at 0.066 µM.

As to `Cn1c(=O)n(CC(=O)N2CCC2)c2cc(-c3cc(F)c(F)c(F)c3)cnc21` [Example 411, 1-[2-(Azetidin-1-yl)-2-oxo-ethyl]-3-methyl-6-(3,4,5-trifluorophenyl)imidazo[4,5-b]pyridin-2-one], under setting [1], the IC50 was 0.014 µM.

Turning to `O=c1[nH]c2ncc(-c3cccc(C(F)(F)F)c3)cc2n1CC1CC1` [Example 211, 1-(Cyclopropylmethyl)-6-[3-(trifluoromethyl)phenyl]-3H-imidazo[4,5-b]pyridin-2-one], the IC50 under setting [2] was determined as 0.115 µM.

On to `Cc1cncc(Cn2c(=O)[nH]c3ncc(-c4cccc(C(F)(F)F)c4)cc32)c1` [Example 242, 1-[(5-Methyl-3-pyridyl)methyl]-6-[3-(trifluoromethyl)phenyl]-3H-imidazo[4,5-b]pyridin-2-one], for which the IC50 under setting [2] stood at 0.15 µM.

For the molecule `Cn1c(=O)n(CC(=O)N2CCCC2)c2cc(-c3cccc(C(F)(F)F)c3)cnc21` [Example 197, 3-Methyl-1-(2-oxo-2-pyrrolidin-1-yl-ethyl)-6-[3-(trifluoromethyl)phenyl]imidazo[4,5-b]pyridin-2-one], the IC50 under setting [2] was determined as 0.205 µM.

For `O=c1[nH]c2ncc(-c3cccc(C(F)(F)F)c3)cc2n1Cc1ccncc1` [Example 229, 1-(4-Pyridylmethyl)-6-[3-(trifluoromethyl)phenyl]-3H-imidazo[4,5-b]pyridin-2-one], the IC50 under setting [2] is 0.194 µM.

On to `COC1CCN(CCn2c(=O)[nH]c3ncc(-c4cc(F)cc(F)c4)cc32)C1` (stereo not shown) [Example 176, 6-(3,5-Difluorophenyl)-1-[2-(3-methoxypyrrolidin-1-yl)ethyl]-3H-imidazo[4,5-b]pyridin-2-one], for which the IC50 under setting [2] amounted to 4.37 µM.

As for `CC1(NC(=O)Cn2c(=O)[nH]c3ncc(-c4cccc(C(F)(F)F)c4)cc32)CC(F)(F)C1` [Example 209, N-(3,3-Difluoro-1-methyl-cyclobutyl)-2-[2-oxo-6-[3-(trifluoromethyl)phenyl]-3H-imidazo[4,5-b]pyridin-1-yl]acetamide], the IC50 under setting [2] was 0.443 µM.

As for `Cc1cc(-c2cnc3c(c2)n(Cc2ccncn2)c(=O)n3C)ccc1F` [Example 71, 6-(4-Fluoro-3-methyl-phenyl)-3-methyl-1-(pyrimidin-4-ylmethyl)imidazo[4,5-b]pyridin-2-one], under setting [2], the IC50 worked out at 0.278 µM.

Consider `COc1ccc(Cn2c(=O)[nH]c3ncc(-c4cccc(C(F)(F)F)c4)cc32)nn1` [Example 252, 1-[(6-Methoxypyridazin-3-yl)methyl]-6-[3-(trifluoromethyl)phenyl]-3H-imidazo[4,5-b]pyridin-2-one], for which the 50% inhibitory concentration (IC50) under setting [2] is > 10 µM.

Turning to `Cc1c(F)ccc(-c2cnc3c(c2)n(Cc2cncnc2)c(=O)n3C)c1F` [Example 69], under setting [2], the IC50 stood at 0.033 µM.

Turning to `COCCNC(=O)Cn1c(=O)[nH]c2ncc(-c3cccnc3)cc21` [Example 445, N-(2-Methoxyethyl)-2-[2-oxo-6-(3-pyridyl)-3H-imidazo[4,5-b]pyridin-1-yl]acetamide], under setting [3], the IC50 was > 29 µM.

In the case of `O=c1[nH]c2ncc(-c3cccc(C(F)(F)F)c3)cc2n1Cc1cncc(C(F)(F)F)c1` [Example 259, 6-[3-(Trifluoromethyl)phenyl]-1-[[5-(trifluoromethyl)-3-pyridyl]methyl]-3H-imidazo[4,5-b]pyridin-2-one], the IC50 under setting [2] was found to be 1.03 µM.

As to `Cc1c(F)ccc(-c2cnc3c(c2)n(Cc2ccncc2)c(=O)n3C)c1F` [Example 66, 6-(2,4-Difluoro-3-methyl-phenyl)-3-methyl-1-(4-pyridylmethyl)imidazo[4,5-b]pyridin-2-one], the IC50 under setting [2] came out at 0.725 µM.

For the molecule `Cn1c(=O)n(Cc2cnccn2)c2cc(-c3cccc(F)c3)cnc21` [Example 55, 6-(3-Fluorophenyl)-3-methyl-1-(pyrazin-2-ylmethyl)imidazo[4,5-b]pyridin-2-one], the IC50 under setting [2] was determined as 3.03 µM.

Regarding `Cn1c(=O)n(CC(=O)N2CC(F)(F)C2)c2cc(-c3cccc(F)c3)cnc21` [Example 417, 1-[2-(3,3-Difluoroazetidin-1-yl)-2-oxo-ethyl]-6-(3-fluorophenyl)-3-methyl-imidazo[4,5-b]pyridin-2-one], the IC50 under setting [1] amounted to 0.031 µM.

As for `Cc1cncc(Cn2c(=O)[nH]c3ncc(-c4ccc(F)c(C)c4F)cc32)c1` [Example 270, 6-(2,4-Difluoro-3-methyl-phenyl)-1-[(5-methyl-3-pyridyl)methyl]-3H-imidazo[4,5-b]pyridin-2-one], the IC50 under setting [2] was found to be 0.115 µM.

`O=c1[nH]c2ncc(-c3cccc(Cl)c3)cc2n1Cc1ccccn1` [Example 282, 6-(3-Chlorophenyl)-1-(2-pyridylmethyl)-3H-imidazo[4,5-b]pyridin-2-one]: under setting [2], the IC50 is 2.61 µM.

In the case of `O=c1[nH]c2ncc(-c3ccc(F)cc3)cc2n1Cc1cccnc1` [Example 295, 6-(4-Fluorophenyl)-1-(3-pyridylmethyl)-3H-imidazo[4,5-b]pyridin-2-one], the IC50 under setting [2] was 0.098 µM.
